Source: PubChem BioAssay (NCI)
“And” between values parts separate entries of the source, which are not always exact repeats. Equal values may be shown once.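 How tested: cells in 96-well plates exposed to compound for 48 hours at five concentrations. GI50 marks 50% less growth. TGI: total growth inhibition.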

Key:
Test in all cases: DTP human tumour cell line panel, 48 h
A549 NSCLC = tested on: A549 NSCLC
HCT-15 colon = tested on: HCT-15 colon
HOP-62 NSCLC = tested on: HOP-62 NSCLC
HT29 colon = tested on: HT29 colon
MALME-3M melanoma = tested on: MALME-3M melanoma
NCI-H23 lung = tested on: NCI-H23 lung
OVCAR-3 ovarian = tested on: OVCAR-3 ovarian
RXF 393 renal = tested on: RXF 393 renal
SK-MEL-5 melanoma = tested on: SK-MEL-5 melanoma
SNB-75 CNS = tested on: SNB-75 CNS

Row | Compound | TGI (A549 NSCLC) [µM] | TGI (HCT-15 colon) [µM] | TGI (HOP-62 NSCLC) [µM] | TGI (HT29 colon) [µM] | TGI (MALME-3M melanoma) [µM] | TGI (NCI-H23 lung) [µM] | TGI (OVCAR-3 ovarian) [µM] | TGI (RXF 393 renal) [µM] | TGI (SK-MEL-5 melanoma) [µM] | TGI (SNB-75 CNS) [µM] | GI50 (A549 NSCLC) | GI50 (HCT-15 colon) [µM] | GI50 (HOP-62 NSCLC) [µM] | GI50 (HT29 colon) [µM] | GI50 (MALME-3M melanoma) [µM] | GI50 (NCI-H23 lung) [µM] | GI50 (OVCAR-3 ovarian) [µM] | GI50 (RXF 393 renal) [µM] | GI50 (SK-MEL-5 melanoma) [µM] | GI50 (SNB-75 CNS) [µM]
1 | O=C1NC(O)c2cc3ccccc3cc2O1 (stereo unspecified) | > 100 | > 100 | > 100 | > 100 | > 100 | > 100 | 88.5 | > 100 | > 100 | > 100 |  |  |  |  |  |  |  |  |  | 
2 | CCOC(=O)NC(=S)N(CC(=O)c1cc(OC)c(OC)c(OC)c1)c1ccc(Cl)cc1 | > 100 | > 100 | > 100 | > 100 | > 100 | > 100 | > 100 | 89.7 | > 100 | > 100 | 59.6 µM | 62.6 | > 100 | > 100 | > 100 | > 100 | > 100 | 17.2 | 43 | 34.1
3 | NC(=O)[C@H](Cc1ccc(O)cc1)Nc1c(O)c2c(c(O)c1Cl)C(=O)C=CC2=O | > 10 | 3.89 | > 10 | 6.2 | 3.78 | > 8.2 | > 5.74 | 9.56 | 3.04 | > 10 |  |  |  |  |  |  |  |  |  | 
4 | Cc1nc2c(Br)cc(Br)cc2c(=O)n1-c1ccccc1NC1OC(CO)C(O)C(O)C1O (stereo unspecified) | > 100 | > 100 | > 100 | > 100 | > 100 | > 100 | > 100 | > 100 | > 100 | > 100 | 27.8 µM and > 100 µM |  |  |  |  |  |  |  |  | 
5 | O=CCCCCCOCc1ccccc1 | > 100 | > 100 | 79.9 | > 100 | > 100 | > 82.6 | > 100 | > 100 | > 54.4 | > 100 |  |  |  |  |  |  |  |  |  | 
6 | Clc1ccc2c(NCCCCCCNc3ccnc4cc(Cl)ccc34)ccnc2c1 | 20.7 | 8.08 | 13.8 | 4.44 | 32.6 | 31.5 | 3.77 | 6.35 | 10.9 | 8.61 |  |  |  |  |  |  |  |  |  | 
7 | C[C@]12CC[C@H]3[C@@H](CC=C4C[C@@H](N5CCCC5)CC[C@@]43C)[C@@H]1C[C@H](N1CCCCC1)[C@@H]2O | > 100 | > 100 | > 100 | > 100 | > 100 | > 100 | > 100 | > 100 | > 100 | > 100 |  |  |  |  |  |  |  |  |  | 
8 | COc1cc(CCNC2=CC(=O)c3nc[nH]c3C2=O)ccc1O | 68.3 | > 100 | > 100 | 53.9 | 26.1 | 48.6 | 30.5 | > 100 | 27.6 | 40.4 |  |  |  |  |  |  |  |  |  | 
9 | CCOC(=O)c1c(-c2ccc(OC)cc2)ccn1C | > 10 | > 10 | > 10 | > 10 | > 10 | > 10 | > 10 | > 10 | > 10 | > 10 |  |  |  |  |  |  |  |  |  | 
10 | Oc1ccc(C(O)C2CCCCN2)cc1O (stereo unspecified) | > 100 | > 100 | > 100 | > 100 | > 100 | > 100 | > 100 | > 100 | > 100 | > 100 |  |  |  |  |  |  |  |  |  | 
11 | C=C(NC(=O)C(=C)NC(=O)c1ccc2c(n1)-c1coc(n1)C(=C)NC(=O)C(=C)NC(=O)c1nc(oc1C)C(=C)NC(=O)C(C(C)(C)O)NC(=O)C(=C)NC(=O)c1coc(n1)/C(=C/C)NC(=O)[C@H]([C@@H](C)O)NC(=O)c1csc-2n1)C(N)=O (stereo partly specified) | > 87.5 | > 87.5 | > 87.5 | > 8.75 | > 87.5 | > 87.5 | > 87.5 | > 87.5 | > 87.5 | > 87.5 |  |  |  |  |  |  |  |  |  | 
12 | CCN1CC2(C)CCC(OC)C34C5CC6CCC(O)(C5C(=O)O6)C(C(O)C23)C14 (stereo unspecified) | > 100 | > 100 | > 100 | > 100 | > 100 | > 100 | > 100 | > 100 | > 100 | > 100 |  |  |  |  |  |  |  |  |  | 
13 | COc1cccc2c1C(=O)c1c(O)c3c(c(O)c1C2=O)C[C@@](O)(C(C)=O)CC3OC1CC(OC2CC(N)C(O)C(C)O2)C(O)C(C)O1 (stereo partly specified) | > 100 | > 100 | > 100 | > 100 | > 100 | > 100 | > 100 | > 100 | > 100 | 85.7 |  |  |  |  |  |  |  |  |  | 
14 | CCCCCC[C@H]([C@H](C)O)n1cnc2c(N)ncnc21 | > 100 | > 100 | > 100 | > 100 | > 100 | > 100 | > 100 | > 100 | > 100 | > 100 |  |  |  |  |  |  |  |  |  | 
15 | CCOC(=O)c1cc(-c2ccc(OC)cc2)c([N+](=O)[O-])[nH]1 | > 10 | > 10 | > 10 | > 10 | > 10 | > 10 | > 10 | > 10 | > 10 | > 10 |  |  |  |  |  |  |  |  |  | 
